Assays:
caspase-8 = molecular target: T1, caspase-8 (Homo sapiens, UniProt Q14790); test: Assay for the caspase inhibitory effect (fluorescent substrate AcDEVD-AFC); format: biochemical; settings: pH 7.5; 2.1 nM caspase-8, 50 μM AcDEVD-AFC, 25° C., pH 7.50; read-out: Caspase-8 Kobs/[I] (converted)
T1 construct: p10 and p20 subunits (Thornberry, N. A. et al, Nature, 1992, 356, 768) were expressed in E. coli; made in house; host or cells: E. coli
Experimental: Caspase-1 and caspase-8 known as cysteine proteases in the form of α2β2 were expressed, purified, and activated by modifying a method known in Thornberry, N. A. et al, Nature, 1992, 356, 768; Thornberry, N. A. Methods in Enzymology, 1994, 244, 615; Walker, N. P. C. et al. Cell, 1994, 78, 343, and caspase-9 was also purified by a similar method, and the inhibitory activity against them was tested. Briefly describing, p10 and p20 subunits (Thornberry, N. A. et al, Nature, 1992, 356, 768) were expressed in E. coli and purified by nickel column and anionic exchange chromatography to give caspase-1, caspase-8 and caspase-9. The fluorescent substrates AcYVAD-AFC for thus obtained caspase-1, AcDEVD-AFC for caspase-8, and AcLEHD-AFC for caspase-9, were used for determining specific activity of the synthesized inhibitors. The enzyme reaction was carried out at 25° C. with various concentrations of the inhibitors in a buffer solution containing 50 mM HEPES (pH 7.50), 10% (w/v) sucrose, 0.1% (w/v) CHAPS, 100 mM NaCl, 1 mM EDTA, and 10 mM DTT in the presence of 50 μM AcYVAD-AFC for 10 nM caspase-1, 50 μM AcDEVD-AFC for 2.1 nM caspase-8, and 150 μM AcLEHD-AFC for 200 nM caspase-9. The inhibitory constants Ki and Kobs of the inhibitors were determined by measuring the reaction velocity with the time lapse using a fluorescent spectrometer and by obtaining the initial rate constant. Ki was calculated from the Lineweaver Burk Plot, and Kobs from the following Equation 1.
Kobs=−ln(1−At/Aoo)/t [Equation 1]
At means cleavage rate (%) at time t, and
Aoo means the maximum cleavage rate (%).
Spectra MAX GeminiXS Fluorescent Spectrometer of Molecular Device Co. was used at the excitation wavelength of 405 nm and the emission wavelength of 505 nm.

[1] = test system: Jurkat cell (ATCC TIB-152); test: Fas antibody-induced apoptosis of Jurkat cells, WST-1 method; format: cell-based; settings: Homo sapiens, apoptosis induced by Fas antibody, alive cells by WST-1
Experimental: The […] inhibitory activity of the inhibitors was determined by subjecting Jurkat cell (ATCC TIB-152) to apoptosis using Fas antibody (Upstate Biotech 05-201) and by detecting the color change according to the WST-1 method known in Francoeur A. M. and Assalian A. (1996) Biochemica 3, 19-25 to observe the amount of alive Jurkat cells when the cells were treated by the inhibitor. Spectra MAX 340 Spectrometer of Molecular Device Co. was used at the absorbance wavelength of 440 nm.

T1 sequence (Q14790 217-374 limits assumed, species assumed): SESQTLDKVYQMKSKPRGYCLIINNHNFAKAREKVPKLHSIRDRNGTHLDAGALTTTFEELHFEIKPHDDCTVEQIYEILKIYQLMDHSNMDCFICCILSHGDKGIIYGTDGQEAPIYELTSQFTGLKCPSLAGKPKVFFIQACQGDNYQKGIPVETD
T1 sequence (Q14790 385-479 limits assumed, species assumed): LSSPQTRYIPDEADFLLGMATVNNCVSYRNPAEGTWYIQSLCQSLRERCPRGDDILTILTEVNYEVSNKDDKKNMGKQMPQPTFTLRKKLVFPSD

| SMILES | kinact/KI (caspase-8) [M⁻¹ s⁻¹] | IC50 [1] [nM] |
| --- | --- | --- |
| CCC(C(=O)NC(CC(=O)O)C(=O)CF)n1nc(C)cc(Cc2ccccc2C(C)(C)C)c1=O (stereo not drawn) [Example 1, 3-{2-[5-(2-tert-Butyl-benzyl)-3-methyl-6-oxo-6H-pyridazin-1-yl]-butyrylamino}-5-fluoro-4-oxo-pentanoic acid] | 91700 | 140 |
| CCC(C(=O)N[C@@H](CC(=O)O)C(=O)COc1c(F)c(F)cc(F)c1F)n1nc(Cc2ccccc2C(C)(C)C)ccc1=O (stereo partly drawn) [Example 6, (S)-3-{2-[3-(2-tert-Butyl-benzyl)-6-oxo-6H-pyridazin-1-yl]-butyrylamino}-4-oxo-5-(2,3,5,6-tetrafluoro-phenoxy)-pentanoic acid] | 2830 |  |
| Cc1cc(Cc2ccccc2C(C)(C)C)c(=O)n(CC(=O)N[C@@H](CC(=O)O)C(=O)COc2c(F)c(F)cc(F)c2F)n1 [Example 4, (S)-3-{2-[5-(2-tert-Butyl-benzyl)-3-methyl-6-oxo-6H-pyridazin-1-yl]-acetylamino}-4-oxo-5-(2,3,5,6-tetrafluoro-phenoxy)-pentanoic acid] | 3330 |  |
| CCC(C(=O)N[C@@H](CC(=O)O)C(=O)COc1c(F)c(F)cc(F)c1F)n1nc(C)cc(Cc2ccccc2C(C)(C)C)c1=O (stereo partly drawn) [Example 2, (S)-3-{2-[5-(2-tert-Butyl-benzyl)-3-methyl-6-oxo-6H-pyridazin-1-yl]-butyrylamino}-4-oxo-5-(2,3,5,6-tetrafluoro-phenoxy)-pentanoic acid] | 33300 | 330 |
| Cc1cc(Cc2ccccc2C(C)(C)C)c(=O)n(C(C)C(=O)N[C@@H](CC(=O)O)C(=O)COc2c(F)c(F)cc(F)c2F)n1 (stereo partly drawn) [Example 3, (S)-3-{2-[5-(2-tert-Butyl-benzyl)-3-methyl-6-oxo-6H-pyridazin-1-yl]-propionylamino}-4-oxo-5-(2,3,5,6-tetrafluoro-phenoxy)-pentanoic acid] | 6670 |  |
| CCC(C(=O)N[C@@H](CC(=O)O)C(=O)COc1c(F)c(F)cc(F)c1F)n1nccc(Cc2ccccc2C(C)(C)C)c1=O (stereo partly drawn) [Example 5, (S)-3-{2-[5-(2-tert-Butyl-benzyl)-6-oxo-6H-pyridazin-1-yl]-butyrylamino}-4-oxo-5-(2,3,5,6-tetrafluoro-phenoxy)-pentanoic acid] | 33300 | 170 |

Reference: patent publication US20100041661A1, “CASPASE INHIBITORS BASED ON PYRIDAZINONE SCAFFOLD” (LG Life Sciences Ltd., priority 2006, published 2010)
